These results are taken from publication PMC11104609, “Discovery of allosteric regulators with clinical potential to stabilize alpha-L-iduronidase in mucopolysaccharidosis type I” (PLOS ONE, 2024).

For assay [1], the target named is T1, IDUA (Homo sapiens, UniProt P35475).
T1 sequence (P35475 28-653): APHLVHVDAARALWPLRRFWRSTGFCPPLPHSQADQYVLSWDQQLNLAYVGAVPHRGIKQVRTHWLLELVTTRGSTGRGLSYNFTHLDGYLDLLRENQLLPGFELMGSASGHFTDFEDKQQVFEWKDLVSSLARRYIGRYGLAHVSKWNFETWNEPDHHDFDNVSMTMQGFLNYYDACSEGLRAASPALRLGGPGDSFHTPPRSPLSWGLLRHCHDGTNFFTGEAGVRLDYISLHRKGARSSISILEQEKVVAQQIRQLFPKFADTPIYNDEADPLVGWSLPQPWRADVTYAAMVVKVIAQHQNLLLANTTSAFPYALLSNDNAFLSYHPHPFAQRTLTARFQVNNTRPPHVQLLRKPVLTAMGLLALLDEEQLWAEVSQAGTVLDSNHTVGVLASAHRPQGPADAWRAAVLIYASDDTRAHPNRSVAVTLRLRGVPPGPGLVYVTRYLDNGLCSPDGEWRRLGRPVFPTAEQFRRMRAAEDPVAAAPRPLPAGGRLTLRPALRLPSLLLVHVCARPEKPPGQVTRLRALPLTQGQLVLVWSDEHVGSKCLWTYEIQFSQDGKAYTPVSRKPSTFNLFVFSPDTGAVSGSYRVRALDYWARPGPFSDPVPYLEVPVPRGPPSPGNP
Put plainly: IDUA enzymatic activity in patient-derived fibroblasts after rhIDUA with or without compound (4-MUI substrate). The format is cell-based. Also on record: Institute of Biotechnology and Biomedicine, Autonomous University of Barcelona (UAB), Bellaterra, Spain. On the procedure:
Fibroblasts derived from Hurler (GM00798) and Hurler/Scheie patients (GM02845, GM00512, GM01898, GM00963) were purchased from Coriell (Camden, NJ). Fibroblasts were cultured in Dulbecco’s modified Eagle’s medium (DMEM, Gibco) supplemented with 10% inactivated fetal bovine serum (FBS, Gibco) and 1% penicillin-streptomycin (Thermo Fisher Scientific, Waltham, MA, USA) (growth medium) at 37 °C under 5% CO2. The effect of the protein and/or compound in enhancing IDUA enzymatic activity was evaluated as follows: The specified patient-derived fibroblasts were seeded at 4x10^4 cells per well in 12-well cell culture plates in growth medium. Subsequently, cells were incubated with indicated dose of rhIDUA (obtained from the Institute of Biotechnology and Biomedicine in the UAB, Bellaterra, Spain) in the absence or presence of the compound #18 (GT-01803) for the specified incubation times at 50 μM. After incubation, cells were washed with PBS and detached using Trypsin-EDTA solution (Sigma Aldrich, St. Louis, MO, USA) to prepare cell pellets. The pellets were stored at -80 °C until activity assays were performed. IDUA activity in cell lysates was measured using 4-methylumbelliferyl IDUA substrate (4-MUI, Glycosynth Ltd., #44076, Warrington, UK). Briefly, lysates were resuspended in 120 μL of 0.9% NaCl containing 0.01% Triton X-100 lysis buffer to promote membrane disruption. Next, the cell suspension was sonicated and centrifuged to pellet insoluble materials. Then, 25 μL of lysates were mixed with 25 μL of 200 μM 4-MUI substrate solution in 0.4 M sodium formate, pH 3.5, 0.2% Triton X-100 buffer and incubated for 60 mins at 37 °C. The reaction was stopped by adding 200 μL of 0.5 M Glycine/0.3 M NaOH buffer, pH 10. The liberated 4-methylumbelliferone (4-MU) was measured on a Glomax® Discover microplate reader with excitation at 340 nm and emission at 460 nm. Protein quantification was determined using Pierce BCA Protein Assay Kit (Thermo Fisher Scientific, Waltham, MA, USA). Measurements were interpolated in a 4-MU standard curve and normalised by protein quantity.
For Fig 6A, rhIDUA concentrations of 0.187, 0.375 and 1.25 nM were tested in GM02845 fibroblasts over a 96-hour period, both in the presence and absence of the compound #18 (GT-01803) at 50 μM. In Fig 6B, 1.25 nM of rhIDUA was evaluated in GM02845, GM00798, GM00512, and GM00963 fibroblasts for 96h, with and without the compound #18 (GT-01803) at 50 μM. In Fig 6C, a concentration of 1.25 nM of the protein was applied to fibroblasts for 4, 8, 24 and 96h, with and without the compound #18 (GT-01803) at 50 μM.

Assay [2] deals with T2, rhIDUA (Aldurazyme) (Homo sapiens, UniProt P35475).
T2 sequence (P35475 28-653): T1 sequence (P35475 28-653)
Kind of assay: IDUA assay in bone marrow of mice co-administered rhIDUA and GT-01803. Type of assay: in vivo, male C57BL/6 mice. The note with it: GT-01803 5, 10, 20 mg/kg i.v. + rhIDUA 1.2 mg/kg i.v.; 6, 8, 10 h; dose-dependent, significant at 20 mg/kg. On the procedure: Mice studies were performed by Sai Life Sciences (Pune, India). All procedures of the present study were in accordance with the guidelines provided by the Committee for the Purpose of Control and Supervision of Experiments on Animals (CPCSEA) as published in The Gazette of India, December 15, 1998. In addition, prior approval from the Institutional Animal Ethics Committee (IAEC) was obtained before the initiation of the study. Healthy male C57BL/6 mice (8–10 weeks old) weighing between 22 and 25 g were procured (Global, Pune, India). Three to five mice were housed in each cage. Temperature and humidity were maintained at 22 ± 2 °C and 41–63%, respectively, and illumination was controlled to give a sequence of a 12 h light and 12 h dark cycle. In the study’s in-life phase, we provided all mice with cage enrichment to minimize anxiety. We conducted bone marrow sampling under isoflurane anesthesia, maintaining it throughout the entire procedure. […] All procedures were carried out according to our in-house Standard Operating Procedures and monitored by a veterinarian if required. […]
Bone marrow samples from mice were collected at 2, 6, 8 and 10 h after treatment with compound #18 (GT-01803). […] The relative fluorescence unit (RFU) in the IDUA enzymatic assay was measured in duplicates (two replicates) and then averaged to obtain the enzyme activity per animal.

[3] abbreviates: rhIDUA 1.25 nM + GT-01803 50 μM, GM02845 fibroblasts (Fig 6C).

Structures are written as SMILES.

For `CCN(CC(=O)Nc1c(Cl)cccc1Cl)Cc1nc2ccsc2c(=O)[nH]1` [GT-01803], the “IDUA cell activity compared with rhIDUA alone” value in assay [1] (co-administration of rhIDUA (0.187, 0.375, 1.25 nM) with 50 μM GT-01803, GM02845, 96 h, p ≤ 0.0001) is on record as “marked dose-dependent increase”. Also, in assay [1] (setting [3]), the “mean IDUA cell activity at 96h” value came to 104.3 nmol/h/mg and the “mean difference in IDUA cell activity at 96h, rhIDUA + compound vs rhIDUA alone” value amounted to 28.65 ± 3.106 nmol/h/mg. The “IDUA enzymatic activity levels in bone marrow” value in assay [2] is reported as “increased”.
